According to paper PMC6269769, “Novel Conformationally Constrained Analogues of Agomelatine as New Melatoninergic Ligands” (Molecules, 2012):
Counter-ions that a name gives are not always drawn.

Legend:
[1] = molecular target: T1, human melatonin MT1 receptor (Homo sapiens, UniProt P48039); assay: […]-[…]iodomelatonin displacement, CHO membranes; type: binding
T1 construct: gene MTNR1A; receptor stably expressed in transfected CHO cells, membrane preparation

[2] = molecular target: T2, human melatonin MT2 receptor (Homo sapiens, UniProt P49286); assay: […]-[…]iodomelatonin displacement, CHO membranes; type: binding
T2 construct: gene MTNR1B; receptor stably expressed in transfected CHO cells, membrane preparation
T2 sequence (P49286 1-362): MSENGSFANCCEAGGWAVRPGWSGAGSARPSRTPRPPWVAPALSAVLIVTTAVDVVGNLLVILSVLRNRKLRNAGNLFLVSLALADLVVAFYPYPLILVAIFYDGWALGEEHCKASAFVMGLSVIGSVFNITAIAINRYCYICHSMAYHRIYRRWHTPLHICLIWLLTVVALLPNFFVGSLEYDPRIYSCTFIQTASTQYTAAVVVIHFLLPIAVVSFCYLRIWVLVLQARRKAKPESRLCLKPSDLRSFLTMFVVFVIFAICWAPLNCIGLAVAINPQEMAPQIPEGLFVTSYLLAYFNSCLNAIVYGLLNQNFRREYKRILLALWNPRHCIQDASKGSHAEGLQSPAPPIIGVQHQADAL

T1 sequence (P48039 whole entry): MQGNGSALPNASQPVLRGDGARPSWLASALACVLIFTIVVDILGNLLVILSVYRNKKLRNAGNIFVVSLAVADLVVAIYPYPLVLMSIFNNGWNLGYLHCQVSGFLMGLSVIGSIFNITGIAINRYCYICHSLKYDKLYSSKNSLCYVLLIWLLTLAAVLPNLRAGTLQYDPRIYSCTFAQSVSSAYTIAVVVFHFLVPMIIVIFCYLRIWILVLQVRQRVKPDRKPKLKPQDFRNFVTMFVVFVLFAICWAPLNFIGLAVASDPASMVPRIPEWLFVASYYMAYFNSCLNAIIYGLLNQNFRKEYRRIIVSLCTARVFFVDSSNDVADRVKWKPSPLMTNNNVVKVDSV

Row | SMILES | Ki [1] [nM] | Ki [2] [nM]
1 | COc1ccc2cccc(CCNc3cc(C)on3)c2c1 [compound 15, 3-[2-(7-Methoxynaphth-1-yl)ethylamino]-5-methyl-1,2-isoxazole hydrochloride] | 48.4 ± 11.2 | 20.3 ± 3.9
2 | COc1ccc2cccc(Cc3noc(=O)[nH]3)c2c1 [compound 4, 3-[(7-Methoxynaphth-1-yl)methyl]-1,2,4-oxadiazole-5(4H)-one] | 80 ± 16 | 25.2 ± 10.7
3 | COc1ccc2cccc(CC3=NOS(=O)N3)c2c1 (stereo not shown) [compound 3, 4-[(7-Methoxynaphth-1-yl)methyl]-3H-1,2,3,5-oxathiadiazole 2-oxide] | > 1000 | 1300
4 | COc1ccc2cccc(CCNc3ncc(C)s3)c2c1 [compound 14, 2-[2-(7-Methoxynaphth-1-yl)ethylamino]-5-methyl-1,3-thiazole] | 389 ± 121 | 354 ± 32
5 | COc1ccc2cccc(Cc3nn[nH]n3)c2c1 [compound 5, 5-(7-Methoxynaphth-1-ylmethyl)-1H-tetrazole] | 380 ± 114 | 190 ± 84
6 | COc1ccc2cccc(CC3NC(=O)NC3=O)c2c1 (stereo not shown) [compound 12, 5-[(7-Methoxynaphth-1-yl)methyl]-imidazolidin-2,4-diones] | 2170 ± 63 | 141 ± 31
7 | COc1ccc2cccc(CCNc3nccs3)c2c1 [compound 13, 2-[2-(7-Methoxynaphth-1-yl)]-ethylamino]-1,3-thiazole hydrochloride] | 33.9 ± 8.1 | 12.5 ± 0.4

The next lines start with the values.

Row | Ki [1] [nM] | Ki [2] [nM] | SMILES
8 | 3000 ± 27 | 800 ± 59 | COc1ccc2ccc3c(c2c1)CCN(C(C)=O)C3 [9b, 1-(9-Methoxy-1,2,3,4-tetrahydro-benzo[f]isoquinolein-3-yl)ethanone]
9 | 113 ± 18 | 6 ± 0.2 | COc1ccc2cccc(CCN3CCOC3=O)c2c1 [7a]
10 | 68.5 ± 18.2 | 2.1 ± 0.01 | COc1ccc2cccc(CCN3CCCC3=O)c2c1 [7b]
11 | 2500 ± 57 | 469 ± 44 | COc1ccc2cccc3c2c1CN(C(C)=O)CC3 [9a, 1-(10-Methoxy-1,2,3,4-tetrahydro-naphto[1,8-cd]azepin-2-yl)ethanone]
